Reference: patent publication US9464048B2, “5-oxo-ETE receptor antagonist compounds” (THE ROYAL INSTITUTION FOR THE ADVANCEMENT OF …, priority 2009, dated 2016)
Where two headings read alike, the source gives them in different places.

Target: OXE receptor (Homo sapiens, UniProt Q8TDS5)
Assay: 5-oxo-ETE-induced calcium mobilization in human granulocytes
Assay type: cell-based
Design: Human granulocytes 95% neutrophils) are prepared from whole blood; endogenous in cells; host or cells: human blood granulocytes (>=95% neutrophils)
Procedure: Primary Screening for Antagonist Activity: Calcium Mobilization in Human Granulocytes
Human granulocytes 95% neutrophils) are prepared from whole blood using Dextran 500 to remove red blood cells, followed by centrifugation over Ficoll-Paque to remove mononuclear cells and hypotonic lysis of any remaining red blood cells. After centrifugation the granulocytes are suspended in Ca^++/Mg^++-free phosphate-buffered saline (PBS). Granulocytes (10^7 cells/nil) are incubated with the acetoxymethyl ester of indo-1 ([…]) for 30 min, followed by washing twice with PBS^− and resuspension in the same medium to obtain a final cell concentration of 3.22×10^6 cells/ml. Five minutes prior to commencing data acquisition, Ca^++ and Mg^++ are added to give final concentrations of 1.8 and 1 mM, respectively. Calcium measurements are performed at 37° C. using a spectrofluorometer equipped with a temperature-controlled cuvette holder and a magnetic stirrer. The excitation and emission wavelengths are 331 nm and 410 nm, respectively. Following stabilization of the baseline, fluorescence is measured for 1 min, prior to the addition of either vehicle or various concentrations of a potential 5-oxo-ETE antagonist. Two min later, 5-oxo-ETE (10 nM) is added, followed 1 min later by digitonin (final concentration 0.1%). Data acquisition is terminated after a further 0.5 min. In some cases LTB4 (10 nM) is added 2 min after 5-oxo-ETE, followed 0.5 min later by addition of digitonin. Fmax is determined from fluorescence measurements after the addition of digitonin, whereas Fmin is determined after determination of autofluorescence as described in the literature (Gelfand et al, J. Biol. Chem. 261:11520 (1986)). A dissociation constant of 250 nM for the indo-1/Ca^++ complex is used to calculate [Ca^++]i. […] Measurement of Actin Polymerization in Eosinophils

[1] = 5-oxo-ETE 10 nM, human granulocytes, Table 2, read-out: IC50 (μM) Ca^++
[2] = Table 3, position of hexyl/hexenyl on the scaffold, readout not given, values match Ca^++, read-out: IC50
[3] = Table 5, alkyl chain variation, readout not given, values match Ca^++, read-out: IC50
[4] = Table 6, carboxyl side chain variation, readout not given, values match Ca^++, read-out: IC50
[5] = Table 4, R1/R2/R3 variation, readout not given, read-out: IC50
[6] = Table 7, alkyl variation, readout not given, values match Ca^++, read-out: IC50

Sequence of OXE receptor (Q8TDS5 whole entry): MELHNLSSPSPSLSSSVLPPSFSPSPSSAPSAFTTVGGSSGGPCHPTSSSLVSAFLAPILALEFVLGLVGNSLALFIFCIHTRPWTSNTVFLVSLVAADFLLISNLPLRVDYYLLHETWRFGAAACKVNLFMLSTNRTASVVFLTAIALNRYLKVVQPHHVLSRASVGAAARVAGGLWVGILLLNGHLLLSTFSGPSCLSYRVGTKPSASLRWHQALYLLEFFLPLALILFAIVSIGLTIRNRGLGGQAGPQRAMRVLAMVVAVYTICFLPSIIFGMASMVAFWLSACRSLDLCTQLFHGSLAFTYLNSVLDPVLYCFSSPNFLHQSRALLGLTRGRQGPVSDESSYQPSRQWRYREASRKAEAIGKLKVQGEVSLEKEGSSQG

## CC(C)CCCCc1c(C(=O)CC(C)CC(=O)O)c2ccc(Cl)cc2n1C (racemic) [Compound 109, 5-[6-Chloro-1-methyl-2-(5-methyl-hexyl)-1H-indol-3-yl]-3-methyl-5-oxo-pentanoic acid]
[1]
  IC50: 0.175 µM

## CCCCCCCc1c(C(=O)CC(C)CC(=O)O)c2cc(Cl)ccc2n1C (racemic) [Compound 113, 5-(5-Chloro-2-heptyl-1-methyl-1H-indol-3-yl)-3-methyl-5-oxo-pentanoic acid]
[1]
  IC50: 0.035 µM

## CC(C)CCCCc1cc2cc(Cl)ccc2n1C(=O)CC(C)CC(=O)O (racemic) [Compound 115, 5-[5-Chloro-2-(5-methyl-hexyl)-indol-1-yl]-3-methyl-5-oxo-pentanoic acid]
[1]
  IC50: 2 µM

## CCCCCCc1c(C(=O)CC(C)CC(=O)O)c2cc(Cl)ccc2n1C (stereo in doubt) [Compound 107, 5-(5-Chloro-2-hexyl-1-methyl-1H-indol-3-yl)-3-(R)-methyl-5-oxo-pentanoic acid]
[1]
  IC50: 0.009 µM

## CCCCCCc1cc2ccccc2n1C(=O)CCCC(=O)O [Compound 1, 5-(2-Hexyl-indol-1-yl)-5-oxo-pentanoic acid]
[1]
  IC50: 1 µM
[2]
  IC50: 1 µM
[3]
  IC50: 1 µM
[4]
  IC50: 1 µM

## CCCCCCc1cc2ccccc2n1C(=O)C[C@@H](C)CC(=O)O [Compound 3, 5-(2-Hexyl-indol-1-yl)-3(R)-methyl-5-oxo-pentanoic acid]
[4]
  IC50: 0.8 µM

## CCCCCCc1c(C(=O)CCCC(=O)O)c2ccccc2n1C [Compound 5, 5-(2-Hexyl-1-methyl-1H-indol-3-yl)-5-oxo-pentanoic acid]
[1]
  IC50: 2.5 µM
[5]
  IC50: 3.7 µM

## CCCCCCc1c(C(=O)CC(C)CC(=O)O)c2ccccc2n1C (stereo not drawn) [Compound 6, 5-(2-Hexyl-1-methyl-1H-indol-3-yl)-3-methyl-5-oxo-pentanoic acid]
[1]
  IC50: 0.34 µM

## CCCCCCc1cn(C(=O)CCCC(=O)O)c2ccccc12 [Compound 7, 5-(3-Hexyl-indol-1-yl)-5-oxo-pentanoic acid]
[2]
  IC50: > 30 µM

## CCCCCCn1cc(C(=O)CCCC(=O)O)c2ccccc21 [Compound 8, 5-(1-Hexyl-1H-indol-3-yl)-5-oxo-pentanoic acid]
[5]
  IC50: > 30 µM

## CCCCCCc1[nH]c2ccccc2c1C(=O)CCCC(=O)O [Compound 10, 5-(2-Hexyl-1H-indol-3-yl)-5-oxo-pentanoic acid]
[5]
  IC50: 11 µM

## CCCCCCc1c(C(=O)CCCC(=O)O)n(C)c2ccccc12 [Compound 11, 5-(3-Hexyl-1-methyl-1H-indol-2-yl)-5-oxo-pentanoic acid]
[5]
  IC50: > 30 µM

## CCCC/C=C/c1cc2ccccc2n1C(=O)CCCC(=O)O [Compound 12, 5-(2-Hex-1-enyl-indol-1-yl)-5-oxo-pentanoic acid]
[3]
  IC50: 3.3 µM

## CCCCCCc1cc2ccccc2n1C(=O)CCC(=O)O [Compound 14, 4-(2-Hexyl-indol-1-yl)-4-oxo-butyric acid]
[4]
  IC50: > 10 µM

## CCCCCCc1cc2ccccc2n1CCCC(=O)O [Compound 16, 4-(2-Hexyl-indol-1-yl)-butyric acid]
[4]
  IC50: 4.5 µM

## CCCC/C=C/c1ccc2c(ccn2C(=O)CC(C)CC(=O)O)c1 (stereo not drawn) [Compound 17, 5-(5-Hex-1-enyl-indol-1-yl)-3-methyl-5-oxo-pentanoic acid]
[6]
  IC50: 10 µM

## CCCCCc1cc2ccccc2n1C(=O)CCCC(=O)O [Compound 18, 5-Oxo-5-(2-pentyl-indol-1-yl)-pentanoic acid]
[3]
  IC50: 1.1 µM

## CCCCCc1cc2ccccc2n1C(=O)CC(C)CC(=O)O (stereo not drawn) [Compound 19, 3-Methyl-5-oxo-5-(2-pentyl-indol-1-yl)-pentanoic acid]
[6]
  IC50: 0.1 µM

## CCCCCCCCC/C=C\c1cc2ccccc2n1C(=O)CCCC(=O)O [Compound 20, 5-Oxo-5-(2-undec-1-enyl-indol-1-yl)-pentanoic acid]
[3]
  IC50: 20 µM

## CCCCCCc1cc2ccccc2n1C(=O)CC(C)(C)CC(=O)O [Compound 21, 5-(2-Hexyl-indol-1-yl)-3,3-dimethyl-5-oxo-pentanoic acid]
[4]
  IC50: 13 µM

## CCCCCCCCCCCc1cc2ccccc2n1C(=O)CCCC(=O)O [Compound 23, 5-Oxo-5-(2-undecyl-indol-1-yl)-pentanoic acid]
[3]
  IC50: 25 µM

## CCCCCCCCc1cc2ccccc2n1C(=O)CCCC(=O)O [Compound 25, 5-(2-Octyl-indol-1-yl)-5-oxo-pentanoic acid]
[3]
  IC50: 2.7 µM

## CCCCc1cc2ccccc2n1C(=O)CCCC(=O)O [Compound 26, 5-(2-Butyl-indol-1-yl)-5-oxo-pentanoic acid]
[3]
  IC50: > 30 µM

## CCCCCCc1cccc2ccn(C(=O)CCCC(=O)O)c12 [Compound 27, 5-(7-Hexyl-indol-1-yl)-5-oxo-pentanoic acid]
[2]
  IC50: > 30 µM

## CCCC/C=C/c1ccc2c(ccn2C(=O)CCCC(=O)O)c1 [Compound 28, 5-(5-hex-1-enyl-indol-1-yl)-5-oxo-pentanoic acid]
[2]
  IC50: 6.5 µM

## CCCCCCc1cc2cc(Cl)ccc2n1C(=O)CCCC(=O)O [Compound 29, 5-(5-Chloro-2-hexyl-indol-1-yl)-5-oxo-pentanoic acid]
[3]
  IC50: 1.4 µM

## CCCCCCc1ccc2c(ccn2C(=O)CCCC(=O)O)c1 [Compound 30, 5-(5-Hexyl-indol-1-yl)-5-oxo-pentanoic acid]
[2]
  IC50: > 30 µM

## CCCCCCc1ccc2ccn(C(=O)CCCC(=O)O)c2c1 [Compound 31, 5-(6-Hexyl-indol-1-yl)-5-oxo-pentanoic acid]
[2]
  IC50: > 10 µM

## CCCC/C=C/c1cccc2ccn(C(=O)CCCC(=O)O)c12 [Compound 32, 5-(7-Hex-1-enyl-indol-1-yl)-5-oxo-pentanoic acid]
[2]
  IC50: > 10 µM

## CCCCCCCc1cc2ccccc2n1C(=O)CCCC(=O)O [Compound 33, 5-(2-Heptyl-indol-1-yl)-5-oxo-pentanoic acid]
[3]
  IC50: 1.5 µM

## CCCCCCCc1cc2ccccc2n1C(=O)CC(C)CC(=O)O (stereo not drawn) [Compound 34, 5-(2-Heptyl-indol-1-yl)-3-methyl-5-oxo-pentanoic acid]
[6]
  IC50: 0.12 µM

## CCCCCCc1c(C(=O)C[C@@H](C)CC(=O)O)c2cc(Cl)ccc2n1C [Compound 100, 5-(5-chloro-2-hexyl-1-methyl-1H-indol-3-yl)-3-(R)-methyl-5-oxopentanoic acid]
[1]
  IC50: 0.125 µM

## CCCCCCc1c(C(=O)CC(C)CC(=O)O)c2cc(Cl)ccc2n1CC (stereo not drawn) [Compound 101, 5-(5-Chloro-1-ethyl-2-hexyl-1H-indol-3-yl)-3-methyl-5-oxo-pentanoic acid]
[1]
  IC50: 0.35 µM

## CCCCCCc1c(C(=O)CC(C)CC(=O)O)c2ccccc2n1CC (stereo not drawn) [Compound 102, 5-(1-Ethyl-2-hexyl-1H-indol-3-yl)-3-methyl-5-oxo-pentanoic acid]
[1]
  IC50: 1.6 µM

## CCCCCCc1c(C(=O)CC(C)CC(=O)O)c2ccc(Cl)cc2n1C (stereo not drawn) [Compound 104, 5-(6-Chloro-2-hexyl-1-methyl-1H-indol-3-yl)-3-methyl-5-oxo-pentanoic acid]
[1]
  IC50: 0.119 µM

## CCCCCCc1c(C(=O)CC(C)CC(=O)NC(C)c2ccccc2)c2cc(Cl)ccc2n1C (stereo not drawn) [Compound 105, 5-(5-chloro-2-hexyl-1-methyl-1H-indol-3-yl)-3-methyl-5-oxo-N-(1-phenylethyl)pentanamide]
[1]
  IC50: > 10 µM

## CCCCCCc1c(C(=O)C[C@@H](C)CC(=O)NC(C)c2ccccc2)c2cc(Cl)ccc2n1C (stereo partly drawn) [Compound 106, 5-(5-Chloro-2-hexyl-1-methyl-1H-indol-3-yl)-3-(R)-methyl-5-oxo-pentanoic acid (1-phenyl-ethyl)-amide]
[1]
  IC50: > 10 µM

## CCCCCCc1c(C(=O)c2cccc(C(=O)O)c2)c2cc(Cl)ccc2n1C [Compound 108, 3-(5-Chloro-2-hexyl-1-methyl-1H-indole-3-carbonyl)benzoic acid]
  IC50: 0.065 µM

## CC(C)CCCCc1cc2ccc(Cl)cc2n1C(=O)CC(C)CC(=O)O (stereo not drawn) [Compound 110, 5-[6-Chloro-2-(5-methyl-hexyl)-indol-1-yl]-3-methyl-5-oxo-pentanoic acid]
[1]
  IC50: 1.03 µM

## CC(C)CCCCc1c(C(=O)CC(C)CC(=O)O)c2cc(Cl)ccc2n1C (stereo not drawn) [Compound 114, 5-[5-Chloro-1-methyl-2-(5-methyl-hexyl)-1H-indol-3-yl]-3-methyl-5-oxo-pentanoic acid]
[1]
  IC50: 0.011 µM

## CCCCCCc1cc2ccc(Cl)cc2n1C(=O)CCC(C)(C)C(=O)O [Compound 116, 5-(6-Chloro-2-hexyl-indol-1-yl)-2,2-dimethyl-5-oxo-pentanoic acid]
[1]
  IC50: > 10 µM
